ChEMBL document CHEMBL3632495, “Discovery of 1,1'-Biphenyl-4-sulfonamides as a New Class of Potent and Selective Carbonic Anhydrase XIV Inhibitors” (J Med Chem, 2015)

Experiments:
Carbonic anhydrase 12 = Carbonic anhydrase 12 (Homo sapiens, UniProt O43570)
Description: Inhibition of human carbonic anhydrase-12 assessed as CO2 hydration activity by stopped-flow method

Carbonic anhydrase 1 = Carbonic anhydrase 1 (Homo sapiens, UniProt P00915)
Description: Inhibition of human carbonic anhydrase-1 assessed as CO2 hydration activity by stopped-flow method

Carbonic anhydrase 2 = Carbonic anhydrase 2 (Homo sapiens, UniProt P00918)
Description: Inhibition of human carbonic anhydrase-2 assessed as CO2 hydration activity by stopped-flow method

Carbonic anhydrase 9 = Carbonic anhydrase 9 (Homo sapiens, UniProt Q16790)
Description: Inhibition of human carbonic anhydrase-9 assessed as CO2 hydration activity by stopped-flow method

Carbonic anhydrase 12, sequence (O43570 whole entry): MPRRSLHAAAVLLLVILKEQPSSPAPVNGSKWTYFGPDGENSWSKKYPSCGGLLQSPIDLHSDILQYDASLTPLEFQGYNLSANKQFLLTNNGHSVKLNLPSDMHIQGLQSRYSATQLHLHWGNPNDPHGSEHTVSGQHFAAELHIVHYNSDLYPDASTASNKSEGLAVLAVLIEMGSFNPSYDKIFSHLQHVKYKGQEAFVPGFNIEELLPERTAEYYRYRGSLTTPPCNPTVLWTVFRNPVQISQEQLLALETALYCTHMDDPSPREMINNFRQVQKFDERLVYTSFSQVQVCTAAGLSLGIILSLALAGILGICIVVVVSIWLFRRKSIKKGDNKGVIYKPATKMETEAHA
Carbonic anhydrase 1, sequence (P00915 whole entry): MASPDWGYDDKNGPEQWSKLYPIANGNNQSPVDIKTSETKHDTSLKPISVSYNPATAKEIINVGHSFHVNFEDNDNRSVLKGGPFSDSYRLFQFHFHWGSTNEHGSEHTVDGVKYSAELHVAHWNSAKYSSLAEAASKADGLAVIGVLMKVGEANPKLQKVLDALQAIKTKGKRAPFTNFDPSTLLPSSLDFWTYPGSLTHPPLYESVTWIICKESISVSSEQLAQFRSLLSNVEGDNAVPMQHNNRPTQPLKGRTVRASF

SMILES | Ki (Carbonic anhydrase 12) | Ki (Carbonic anhydrase 1) | Ki (Carbonic anhydrase 2) | Ki (Carbonic anhydrase 9)
COC(=O)c1ccc(-c2ccc(S(N)(=O)=O)cc2)cc1 | 35.2 nM | 77 nM | 9 nM | 9.3 nM
CC(C)(C)OC(=O)c1ccc(-c2ccc(S(N)(=O)=O)cc2)cc1 | 44.9 nM | 78.8 nM | 42 nM | –
NS(=O)(=O)c1ccc(-c2ccc(C(=O)O)cc2)cc1 | 52.3 nM | 340 nM | 6.2 nM | 3.6 nM
NS(=O)(=O)c1ccc(-c2ccc([N+](=O)[O-])cc2)cc1 | 7.4 nM | 62.2 nM | 11.6 nM | 9.6 nM
NS(=O)(=O)c1ccc(-c2ccc(C(O)c3ccccc3)cc2)cc1 (stereo unspecified) | 81.1 nM | 52.7 nM | 4.9 nM | 8.9 nM
COC(=O)c1ccc(C(=O)c2ccc(-c3ccc(S(N)(=O)=O)cc3)cc2)cc1 | 7.3 nM | 73.8 nM | 7.8 nM | 42.3 nM
COC(=O)c1ccc(Cc2ccc(-c3ccc(S(N)(=O)=O)cc3)cc2)cc1 | 237 nM | 122 nM | 50.6 nM | 76.7 nM
NS(=O)(=O)c1ccc(-c2ccc(C(=O)c3ccc(C(=O)O)cc3)cc2)cc1 | 45.5 nM | 263 nM | 4.8 nM | 8.5 nM
NS(=O)(=O)c1ccc(-c2ccc(Cc3ccc(C(=O)O)cc3)cc2)cc1 | – | 236 nM | 6.9 nM | 31.4 nM
NS(=O)(=O)c1ccc(-c2ccc(C(=O)c3ccc([N+](=O)[O-])cc3)cc2)cc1 | 70.6 nM | 80.1 nM | 63.3 nM | –
NS(=O)(=O)c1ccc(-c2ccc(C(O)c3ccc([N+](=O)[O-])cc3)cc2)cc1 (stereo unspecified) | – | – | 5.9 nM | 678 nM

More lines, in order of falling Ki (Carbonic anhydrase 2), values ahead:

Ki (Carbonic anhydrase 12) | Ki (Carbonic anhydrase 1) | Ki (Carbonic anhydrase 2) | Ki (Carbonic anhydrase 9) | SMILES
93.9 nM | 72.5 nM | 814 nM | 450 nM | NS(=O)(=O)c1ccc(-c2ccc(C(O)c3ccc(C(=O)O)cc3)cc2)cc1 (stereo unspecified)
77.2 nM | 75.3 nM | 454 nM | 519 nM | NS(=O)(=O)c1ccc(-c2ccc(Cc3ccccc3)cc2)cc1
9.3 nM | 70.5 nM | 39.7 nM | 705 nM | NS(=O)(=O)c1ccc(-c2ccc(Cc3ccc([N+](=O)[O-])cc3)cc2)cc1
26.2 nM | 46.7 nM | 11.5 nM | – | NS(=O)(=O)c1ccc(-c2ccc(C(=O)NCCO)cc2)cc1
7.7 nM | 78.5 nM | 9.1 nM | – | Nc1ccc(-c2ccc(S(N)(=O)=O)cc2)cc1
6.7 nM | 6.3 nM | 6.6 nM | – | COC(=O)c1ccc(C(O)c2ccc(-c3ccc(S(N)(=O)=O)cc3)cc2)cc1 (stereo unspecified)
8.3 nM | 67.5 nM | 5.3 nM | 823 nM | NC(=O)c1ccc(-c2ccc(S(N)(=O)=O)cc2)cc1
8.1 nM | 589 nM | 5.2 nM | 6 nM | Nc1ccc(Cc2ccc(-c3ccc(S(N)(=O)=O)cc3)cc2)cc1
7.4 nM | 1630 nM | 4.3 nM | – | NS(=O)(=O)c1ccc(-c2ccc(C(=O)c3ccccc3)cc2)cc1
